Patent US20230047788A1, “COMPOSITIONS COMPRISING 5-CHOLESTEN-3, 25-DIOL, 3-SULFATE (25HC3S) OR PHARMACEUTICALLY ACCEPTABLE SALT THEREOF AND AT LEAST ONE CYCLIC OLIGOSACCHARIDE” (Virginia Commonwealth University, priority 2016, published 2023)
Where “and” joins values, the source holds several entries; their conditions need not be identical. Equal entries are not always repeated.

Assay: Infusion compatibility of constituted 25HC3S solution with 5% dextrose, 0.9% sodium chloride and two infusion sets
Assay type: physicochemical
Conditions: for Osmolality / pH / % Remaining Compared to T = 0 / Concentration / T = 0 Conc.: 5% dextrose bag
Protocol: After constitution with Vehicle, the 30 mg/mL 25HC3S product was diluted into 100 mL of 5% dextrose injection, USP or 0.9% sodium chloride injection, USP, and was administered to subjects as an IV infusion ranging from a 30 mg to 150 mg 25HC3S dose. This was accomplished by adding 1.0 mL (for the 30 mg dose) or 5.0 mL (for the 150 mg dose), or any volume in between, of the 30 mg/mL 25HC3S product into a 100 mL dextrose or sodium chloride infusion bag. The entire admixture content in the infusion bag was infused into the subject over approximately 2 hours at a rate of 50 mL/hour.
A physical and chemical compatibility study was conducted at a 30 mg, 48 mg and 300 mg 25HC3S dose in 5% dextrose and 0.9% sodium chloride infusion bags. Descriptions of the two kinds of infusion sets tested with 25HC3S product diluted in 5% dextrose and 0.9% sodium chloride are listed in Table 15. The tubing in catalog number 2H8480 infusion set was composed of polyvinylchloride (PVC), while the tubing in catalog number 2C8858 was polyethylene lined except for a short pump segment (approximately 12 inches) which was composed of PVC.
25HC3S for Injection and Vehicle for 25HC3S for Injection, that had been stored at 2-8° C. for approximately 16 months, were used for the compatibility study. After constitution, 30 mg (1.0 mL of constituted product), 48 mg (1.6 mL of constituted product) or 300 mg (10 mL of constituted product) were added to 100 mL infusion bags of 5% dextrose and 0.9% sodium chloride, mixed thoroughly, and stored for 24 hours at room temperature and at 2-8° C. […] Taking into consideration the overfill per infusion bag and the additional volume introduced by adding the constituted 25HC3S product to each bag, the expected concentrations of 25HC3S were 0.28 mg/mL, 0.44 mg/mL, and 2.56 mg/mL in the infusion bags. Two kinds of infusion sets were then attached to the drug containing infusion bags, and the entire contents were eluted through the infusion sets at approximately 50 mL/hour at room temperature. Samples were collected from the 25HC3S prepared infusion bags at T=0 and at 24 hours, and from the total eluent passed through the infusion sets, and tested for 25HC3S concentration using HPLC. Solution visual appearance, osmolality (using method USP<785>), and pH (using method USP<791>) were also measured on the collected samples.

[1] = 5% dextrose, ~0.28 mg/mL, 24 h 2-8°C then Baxter 2C8858
[2] = 5% dextrose, ~0.28 mg/mL, 24 h 2-8°C then Baxter 2H8480
[3] = 5% dextrose, ~0.28 mg/mL, 24 h RT then Baxter 2C8858
[4] = 5% dextrose, ~0.28 mg/mL, 24 h RT then Baxter 2H8480
[5] = 5% dextrose, ~0.44 mg/mL, 24 h 2-8°C then Baxter 2C8858
[6] = 5% dextrose, ~0.44 mg/mL, 24 h 2-8°C then Baxter 2H8480
[7] = 5% dextrose, ~0.44 mg/mL, 24 h RT then Baxter 2C8858
[8] = 5% dextrose, ~0.44 mg/mL, 24 h RT then Baxter 2H8480
[9] = 5% dextrose, ~2.56 mg/mL, 24 h 2-8°C then Baxter 2C8858
[10] = 5% dextrose, ~2.56 mg/mL, 24 h 2-8°C then Baxter 2H8480
[11] = 5% dextrose, ~2.56 mg/mL, 24 h RT then Baxter 2C8858
[12] = 5% dextrose, ~2.56 mg/mL, 24 h RT then Baxter 2H8480

C[C@H](CCCC(C)(C)O)[C@H]1CC[C@H]2[C@@H]3CC=C4C[C@@H](OS(=O)(=O)[O-])CC[C@]4(C)[C@H]3CC[C@]12C.[Na+] [25HC3S, 5-cholesten-3, 25-diol, 3-sulfate]
Osmolality (~0.28 mg/mL, 24 Hours at 2-8°C): 250 mmol/kg and 253 mmol/kg
pH (~0.28 mg/mL, 24 Hours at 2-8°C): 7.09 and 7.04
% Remaining Compared to T = 0 (~0.28 mg/mL, 24 Hours at RT): (100.0%)
Concentration (~0.28 mg/mL, 24 Hours at RT): 276 µg/mL and 277 µg/mL
Osmolality (~0.28 mg/mL, 24 Hours at RT): 252 mmol/kg and 249 mmol/kg
pH (~0.28 mg/mL, 24 Hours at RT): 7.12 and 7.05
Osmolality (~0.28 mg/mL, T = 0): 247 mmol/kg and 250 mmol/kg and 251 mmol/kg
T = 0 Conc. (~0.28 mg/mL, T = 0): 0.276 mg/mL and 0.277 mg/mL and 0.280 mg/mL and 0.279 mg/mL
pH (~0.28 mg/mL, T = 0): 7.09 and 7.03 and 7.10 and 7.04
Concentration (~0.44 mg/mL, 24 Hours at 2-8°C): 438 µg/mL and 440 µg/mL
Osmolality (~0.44 mg/mL, 24 Hours at 2-8°C): 254 mmol/kg and 257 mmol/kg
pH (~0.44 mg/mL, 24 Hours at 2-8°C): 6.96 and 6.93
% Remaining Compared to T = 0 (~0.44 mg/mL, 24 Hours at RT): (100.0%)
Concentration (~0.44 mg/mL, 24 Hours at RT): 447 µg/mL and 442 µg/mL
Osmolality (~0.44 mg/mL, 24 Hours at RT): 256 mmol/kg and 253 mmol/kg
pH (~0.44 mg/mL, 24 Hours at RT): 6.91 and 6.90
Osmolality (~0.44 mg/mL, T = 0): 255 mmol/kg and 254 mmol/kg and 256 mmol/kg
T = 0 Conc. (~0.44 mg/mL, T = 0): 0.447 mg/mL and 0.442 mg/mL and 0.439 mg/mL
pH (~0.44 mg/mL, T = 0): 6.83 and 6.81 and 6.82 and 6.88
Concentration (~2.56 mg/mL, 24 Hours at 2-8°C): 2550 µg/mL and 2530 µg/mL
Osmolality (~2.56 mg/mL, 24 Hours at 2-8°C): 246 mmol/kg and 251 mmol/kg
pH (~2.56 mg/mL, 24 Hours at 2-8°C): 6.11 and 6.14
Concentration (~2.56 mg/mL, 24 Hours at RT): 2470 µg/mL and 2520 µg/mL
Osmolality (~2.56 mg/mL, 24 Hours at RT): 257 mmol/kg and 250 mmol/kg
pH (~2.56 mg/mL, 24 Hours at RT): 6.12 and 6.06
Osmolality (~2.56 mg/mL, T = 0): 258 mmol/kg and 247 mmol/kg
T = 0 Conc. (~2.56 mg/mL, T = 0): 2.500 mg/mL and 2.510 mg/mL and 2.530 mg/mL and 2.525 mg/mL
pH (~2.56 mg/mL, T = 0): 6.04 and 6.12 and 6.29 and 6.26
deviation of concentrations from initial T=0 time point (5% dextrose, 24 hours at RT and 2-8°C and after elution through infusion sets): ≤ 1.4%
% Remaining after infusion set [1]: (100.4%)
Concentration after infusion set [1]: 280 µg/mL
Osmolality after infusion set [1]: 252 mmol/kg
pH after infusion set [1]: 6.99
% Remaining after infusion set [2]: (100.0%)
Concentration after infusion set [2]: 280 µg/mL
Osmolality after infusion set [2]: 251 mmol/kg
pH after infusion set [2]: 6.95
% Remaining after infusion set [3]: (100.0%)
Concentration after infusion set [3]: 277 µg/mL
Osmolality after infusion set [3]: 252 mmol/kg
pH after infusion set [3]: 7.04
% Remaining after infusion set [4]: (100.0%)
Concentration after infusion set [4]: 276 µg/mL
Osmolality after infusion set [4]: 252 mmol/kg
pH after infusion set [4]: 6.99
% Remaining after infusion set [5]: (100.2%)
Concentration after infusion set [5]: 440 µg/mL
Osmolality after infusion set [5]: 255 mmol/kg
pH after infusion set [5]: 6.93
% Remaining after infusion set [6]: (100.2%)
Concentration after infusion set [6]: 440 µg/mL
Osmolality after infusion set [6]: 257 mmol/kg
pH after infusion set [6]: 6.91
% Remaining after infusion set [7]: (100.0%)
Concentration after infusion set [7]: 442 µg/mL
Osmolality after infusion set [7]: 253 mmol/kg
pH after infusion set [7]: 6.90
% Remaining after infusion set [8]: (100.2%)
Concentration after infusion set [8]: 448 µg/mL
Osmolality after infusion set [8]: 253 mmol/kg
pH after infusion set [8]: 6.91
% Remaining after infusion set [9]: (100.4%)
Concentration after infusion set [9]: 2535 µg/mL
Osmolality after infusion set [9]: 248 mmol/kg
pH after infusion set [9]: 6.10
% Remaining after infusion set [10]: (100.4%)
Concentration after infusion set [10]: 2540 µg/mL
Osmolality after infusion set [10]: 247 mmol/kg
pH after infusion set [10]: 5.99
% Remaining after infusion set [11]: (101.4%)
Concentration after infusion set [11]: 2545 µg/mL
Osmolality after infusion set [11]: 251 mmol/kg
pH after infusion set [11]: 6.00
% Remaining after infusion set [12]: (99.2%)
Concentration after infusion set [12]: 2480 µg/mL
Osmolality after infusion set [12]: 261 mmol/kg
pH after infusion set [12]: 6.01
solution appearance (dextrose and sodium chloride, all three concentrations, after 24 hours in bags and after elution): clear and colorless solutions
decrease of pH over 24 hours in the infusion bags (sodium chloride, approximately 0.28 mg/mL 25HC3S): ~0.5 pH unit
